Target: T1, […]F508-CFTR (Homo sapiens, UniProt P13569, DEL508-508)
T1 construct: expressed in transfected cells
Assay: Assay results of Table 3: ΔF508-CFTR modulation, membrane potential optical assay (assay format not stated)
Format: cell-based
Settings: NIH3T3 mouse fibroblasts stably expressing […]F508-CFTR (optical assays); for Efficacy: efficacy range; for EC50: potency range
From the text: A. Membrane Potential Optical Methods for Assaying […]F508-CFTR Modulation Properties of Compounds
The optical membrane potential assay utilized voltage-sensitive FRET sensors described by Gonzalez and Tsien (See, Gonzalez, J. E. and R. Y. Tsien (1995) “Voltage sensing by fluorescence resonance energy transfer in single cells” Biophys J 69(4): 1272-80, and Gonzalez, J. E. and R. Y. Tsien (1997) “Improved indicators of cell membrane potential that use fluorescence resonance energy transfer” Chem Biol 4(4): 269-77) in combination with instrumentation for measuring fluorescence changes such as the Voltage/Ion Probe Reader (VIPR) (See, Gonzalez, J. E., K. Oades, et al. (1999) “Cell-based assays and instrumentation for screening ion-channel targets” Drug Discov Today 4(9): 431-439).
These voltage sensitive assays are based on the change in fluorescence resonant energy transfer (FRET) between the membrane-soluble, voltage-sensitive dye, DiSBAC2(3), and a fluorescent phospholipid, CC2-DMPE, which is attached to the outer leaflet of the plasma membrane and acts as a FRET donor. Changes in membrane potential (Vm) cause the negatively charged DiSBAC2(3) to redistribute across the plasma membrane and the amount of energy transfer from CC2-DMPE changes accordingly. The changes in fluorescence emission were monitored using VIPR™ II, which is an integrated liquid handler and fluorescent detector designed to conduct cell-based screens in 96- or 384-well microtiter plates.
To identify small molecules that correct the trafficking defect associated with ΔF508-CFTR; a single-addition HTS assay format was developed. The cells were incubated in serum-free medium for 16 hrs at 37° C. in the presence or absence (negative control) of test compound. As a positive control, cells plated in 384-well plates were incubated for 16 hrs at 27° C. to “temperature-correct” […]F508-CFTR. The cells were subsequently rinsed 3× with Krebs Ringers solution and loaded with the voltage-sensitive dyes. To activate […]F508-CFTR, 10 µM forskolin and the CFTR potentiator, genistein (20 µM), were added along with Cl^−-free medium to each well. The addition of Cl^−-free medium promoted Cl^− efflux in response to […]F508-CFTR activation and the resulting membrane depolarization was optically monitored using the FRET-based voltage-sensor dyes.
To identify potentiators of […]F508-CFTR, a double-addition HTS assay format was developed. During the first addition, a Cl^−-free medium with or without test compound was added to each well. After 22 sec, a second addition of Cl^−-free medium containing 2-10 µM forskolin was added to activate […]F508-CFTR. The extracellular Cl^− concentration following both additions was 28 mM, which promoted Cl^− efflux in response to […]F508-CFTR activation and the resulting membrane depolarization was optically monitored using the FRET-based voltage-sensor dyes.
Bath Solution #1: (in mM) NaCl 160, KCl 4.5, CaCl2 2, MgCl2 1, HEPES 10, pH 7.4 with NaOH.
Chloride-free bath solution: Chloride salts in Bath Solution #1 are substituted with gluconate salts.
CC2-DMPE: Prepared as a 10 mM stock solution in DMSO and stored at −20° C.
DiSBAC2(3): Prepared as a 10 mM stock in DMSO and stored at −20° C.
NIH3T3 mouse fibroblasts stably expressing […]F508-CFTR are used for optical measurements of membrane potential. The cells are maintained at 37° C. in 5% CO2 and 90% humidity in Dulbecco's modified Eagle's medium supplemented with 2 mM glutamine, 10% fetal bovine serum, 1× NEAA, […]-ME, 1× pen/strep, and 25 mM HEPES in 175 cm^2 culture flasks. For all optical assays, the cells were seeded at 30,000/well in 384-well matrigel-coated plates and cultured for 2 hrs at 37° C. before culturing at 27° C. for 24 hrs for the potentiator assay. For the correction assays, the cells are cultured at 27° C. or 37° C. with and without compounds for 16-24 hoursB.

T1 sequence (P13569 with tags, fused parts or gaps DEL508-508): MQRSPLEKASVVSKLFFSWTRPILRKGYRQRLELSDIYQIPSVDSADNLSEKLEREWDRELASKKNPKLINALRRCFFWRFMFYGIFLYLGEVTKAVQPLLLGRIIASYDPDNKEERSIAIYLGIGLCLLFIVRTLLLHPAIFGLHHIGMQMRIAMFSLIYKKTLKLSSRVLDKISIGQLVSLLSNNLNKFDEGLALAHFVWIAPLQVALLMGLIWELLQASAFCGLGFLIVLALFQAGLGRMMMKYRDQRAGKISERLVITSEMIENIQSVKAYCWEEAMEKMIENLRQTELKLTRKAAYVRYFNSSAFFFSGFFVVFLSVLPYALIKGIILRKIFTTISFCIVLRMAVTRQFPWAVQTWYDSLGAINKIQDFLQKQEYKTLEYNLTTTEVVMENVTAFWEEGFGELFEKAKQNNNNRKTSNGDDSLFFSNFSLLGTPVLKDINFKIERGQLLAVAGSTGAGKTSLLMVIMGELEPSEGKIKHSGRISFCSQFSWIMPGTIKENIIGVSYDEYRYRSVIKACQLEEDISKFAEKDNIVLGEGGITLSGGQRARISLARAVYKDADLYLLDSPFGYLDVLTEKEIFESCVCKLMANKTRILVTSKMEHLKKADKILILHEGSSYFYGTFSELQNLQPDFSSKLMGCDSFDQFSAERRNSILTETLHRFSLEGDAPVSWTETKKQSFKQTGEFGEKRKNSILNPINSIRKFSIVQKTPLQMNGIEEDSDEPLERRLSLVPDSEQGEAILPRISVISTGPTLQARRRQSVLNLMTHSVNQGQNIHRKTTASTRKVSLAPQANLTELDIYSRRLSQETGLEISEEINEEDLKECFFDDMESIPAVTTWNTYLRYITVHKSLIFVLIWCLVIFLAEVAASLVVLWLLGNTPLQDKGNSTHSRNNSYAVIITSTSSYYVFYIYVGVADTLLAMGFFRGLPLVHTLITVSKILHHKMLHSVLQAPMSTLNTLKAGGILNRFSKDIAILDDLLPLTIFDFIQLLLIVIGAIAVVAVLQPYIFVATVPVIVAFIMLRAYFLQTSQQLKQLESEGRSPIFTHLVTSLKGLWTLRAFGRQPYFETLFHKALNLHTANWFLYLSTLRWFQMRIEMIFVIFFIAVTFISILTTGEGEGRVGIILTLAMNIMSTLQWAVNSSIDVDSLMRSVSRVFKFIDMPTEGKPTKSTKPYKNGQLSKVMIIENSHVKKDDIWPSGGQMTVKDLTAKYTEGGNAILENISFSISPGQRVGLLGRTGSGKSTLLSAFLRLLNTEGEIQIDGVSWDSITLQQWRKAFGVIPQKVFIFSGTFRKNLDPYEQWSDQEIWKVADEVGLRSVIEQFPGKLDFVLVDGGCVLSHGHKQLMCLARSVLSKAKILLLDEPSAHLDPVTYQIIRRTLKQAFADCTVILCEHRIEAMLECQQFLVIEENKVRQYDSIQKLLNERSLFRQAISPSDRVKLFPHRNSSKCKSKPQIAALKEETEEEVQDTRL

Row | Compound | EC50 | Efficacy
1 | NC(=O)c1cc(-c2ccoc2)nc(N2CCCCC2)n1 [Compound 25] | > 5 µM | + (+ corresponds to Efficacy less than 50)
2 | CCCCN(CCC)c1nc(C(N)=O)cc(-c2ccccc2)n1 [Compound 118] | < 1 µM | ++ (++ corresponds to Efficacy between 100 and 50)
3 | Cc1csc(-c2cc(C(N)=O)nc(N3CCCCC3)n2)c1 [Compound 70] | 1 to 5 µM | + (+ corresponds to Efficacy less than 50)
4 | CN(CC(O)c1ccccc1)c1nc(C(N)=O)cc(-c2ccccc2)n1 (centres unmarked) [Compound 101] | > 5 µM | +++ (+++ corresponds to Efficacy greater than 100)
5 | COc1ccccc1-c1cc(C(N)=O)nc(N2CC=CCC2)n1 [Compound 135] | > 5 µM | ++ (++ corresponds to Efficacy between 100 and 50)
6 | CCOC(=O)C1CCCN(c2nc(C(N)=O)cc(-c3ccccc3)n2)C1 (centres unmarked) [Compound 59] | 1 to 5 µM | + (+ corresponds to Efficacy less than 50)
7 | NC(=O)c1cc(-c2ccccc2)nc(N2CCCCC2)n1 [Compound 16] | 1 to 5 µM | ++ (++ corresponds to Efficacy between 100 and 50)
8 | NC(=O)c1cc(-c2ccccc2)nc(N2CCc3ccccc3C2)n1 [Compound 54] | 1 to 5 µM | ++ (++ corresponds to Efficacy between 100 and 50)
9 | CCN(CC)c1nc(C(N)=O)cc(-c2cccc(C)c2C)n1 [Compound 120] | < 1 µM | ++ (++ corresponds to Efficacy between 100 and 50)
10 | CCCN(CC1CC1)c1nc(C(N)=O)cc(-c2ccccc2OC)n1 [Compound 39] | > 5 µM | +++ (+++ corresponds to Efficacy greater than 100)
11 | CCN(CC)c1nc(C(N)=O)cc(-c2ccc(OC)c(OC)c2)n1 [Compound 82] | < 1 µM | ++ (++ corresponds to Efficacy between 100 and 50)
12 | NC(=O)c1cc(-c2ccccc2)nc(N2CC=C(c3ccccc3)CC2)n1 [Compound 53] | > 5 µM | ++ (++ corresponds to Efficacy between 100 and 50)
13 | CCN(CC)c1nc(C(N)=O)cc(-c2ccccc2)n1 [Compound 119] | < 1 µM | +++ (+++ corresponds to Efficacy greater than 100)
14 | CNC(=O)c1cc(-c2ccccc2)nc(NCc2ccco2)n1 [Compound 2] | > 5 µM | ++ (++ corresponds to Efficacy between 100 and 50)
15 | CCN(CC)c1nc(C(N)=O)cc(-c2ccccc2F)n1 [Compound 94] | 1 to 5 µM | +++ (+++ corresponds to Efficacy greater than 100)
16 | N#Cc1ccc(-c2cc(C(N)=O)nc(N3CCCCC3)n2)cc1 [Compound 130] | > 5 µM | + (+ corresponds to Efficacy less than 50)
17 | NC(=O)c1cc(-c2ccccc2)nc(N2CCC(Cc3ccccc3)CC2)n1 [Compound 37] | > 5 µM | ++ (++ corresponds to Efficacy between 100 and 50)
18 | CCN(CC)c1nc(C(N)=O)cc(-c2ccc(F)c(C)c2)n1 [Compound 131] | 1 to 5 µM | +++ (+++ corresponds to Efficacy greater than 100)
19 | Cc1ccccc1-c1cc(C(N)=O)nc(N2CCCCC2)n1 [Compound 114] | 1 to 5 µM | +++ (+++ corresponds to Efficacy greater than 100)
20 | CCN(CC)c1nc(C(N)=O)cc(-c2ccc(OC)cc2)n1 [Compound 109] | < 1 µM | +++ (+++ corresponds to Efficacy greater than 100)
21 | NC(=O)c1cc(-c2ccccc2)nc(N2CCC(O)(c3cccc(C(F)(F)F)c3)CC2)n1 [Compound 96] | > 5 µM | ++ (++ corresponds to Efficacy between 100 and 50)
22 | CCN(CC)c1nc(C(N)=O)cc(-c2ccc(C(F)(F)F)cc2)n1 [Compound 10] | > 5 µM | ++ (++ corresponds to Efficacy between 100 and 50)

Second part, led by results:

Row | EC50 | Compound | Efficacy
23 | > 5 µM | COc1ccccc1-c1cc(C(N)=O)nc(N(C)C)n1 [Compound 208] | + (+ corresponds to Efficacy less than 50)
24 | > 5 µM | NC(=O)c1cc(-c2ccc3c(c2)OCO3)nc(N2CCCCC2)n1 [Compound 227] | ++ (++ corresponds to Efficacy between 100 and 50)
25 | 1 to 5 µM | CCCN(CC1CC1)c1nc(C(N)=O)cc(-c2ccc(OC)cc2)n1 [Compound 197] | ++ (++ corresponds to Efficacy between 100 and 50)
26 | 1 to 5 µM | CN(Cc1ccccc1)c1nc(C(N)=O)cc(-c2ccccc2)n1 [Compound 164] | ++ (++ corresponds to Efficacy between 100 and 50)
27 | 1 to 5 µM | NC(=O)c1cc(-c2cc(F)cc(F)c2)nc(N2CCCCC2)n1 [Compound 219] | + (+ corresponds to Efficacy less than 50)
28 | < 1 µM | CCCCN(CCCC)c1nc(C(N)=O)cc(-c2ccccc2)n1 [Compound 171] | ++ (++ corresponds to Efficacy between 100 and 50)
29 | < 1 µM | CCN(CC)c1nc(C(N)=O)cc(-c2ccc(CC(C)C)cc2)n1 [Compound 184] | ++ (++ corresponds to Efficacy between 100 and 50)
30 | > 5 µM | CNc1nc(C(N)=O)cc(-c2cccc(OC)c2)n1 [Compound 231] | ++ (++ corresponds to Efficacy between 100 and 50)
31 | 1 to 5 µM | COc1ccc(F)cc1-c1cc(C(N)=O)nc(N2CCCCC2)n1 [Compound 137] | ++ (++ corresponds to Efficacy between 100 and 50)
32 | 1 to 5 µM | NC(=O)c1cc(-c2ccccc2Oc2ccccc2)nc(N2CCCCC2)n1 [Compound 146] | +++ (+++ corresponds to Efficacy greater than 100)
33 | 1 to 5 µM | CNC(=O)c1cc(-c2ccccc2)nc(N2CCCCC2)n1 [Compound 232] | + (+ corresponds to Efficacy less than 50)
34 | < 1 µM | CCN(CC)c1nc(C(N)=O)cc(-c2cc(F)ccc2F)n1 [Compound 163] | ++ (++ corresponds to Efficacy between 100 and 50)
35 | > 5 µM | COc1cccc(-c2cc(C(N)=O)nc(N)n2)c1 [Compound 191] | + (+ corresponds to Efficacy less than 50)
36 | > 5 µM | CCN(CC)c1nc(C(=O)N2CCCCC2)cc(-c2ccccc2)n1 [Compound 157] | + (+ corresponds to Efficacy less than 50)
37 | > 5 µM | CCNc1nc(C(N)=O)cc(-c2cccc(OC)c2)n1 [Compound 138] | ++ (++ corresponds to Efficacy between 100 and 50)
38 | 1 to 5 µM | Cc1ccc(-c2cc(C(N)=O)nc(N3CCCCC3)n2)cc1 [Compound 221] | + (+ corresponds to Efficacy less than 50)
39 | 1 to 5 µM | NC(=O)c1cc(-c2cc(Cl)cc(Cl)c2)nc(N2CCCCC2)n1 [Compound 199] | ++ (++ corresponds to Efficacy between 100 and 50)
40 | > 5 µM | NC(=O)c1cc(-c2cccc(C(F)(F)F)c2)nc(N2CCCCC2)n1 [Compound 185] | + (+ corresponds to Efficacy less than 50)
41 | > 5 µM | CCN(CC)c1nc(C(N)=O)cc(-c2cnc(OC)nc2OC)n1 [Compound 174] | ++ (++ corresponds to Efficacy between 100 and 50)
42 | 1 to 5 µM | CCN(CC)c1nc(C(N)=O)cc(-c2ccc(C)cc2)n1 [Compound 230] | +++ (+++ corresponds to Efficacy greater than 100)
43 | > 5 µM | COc1ccc(C(C)C)cc1-c1cc(C(N)=O)nc(N2CCCCC2)n1 [Compound 224] | + (+ corresponds to Efficacy less than 50)

Reference: patent US8822451B2, “Modulators of ATP-binding cassette transporters” (Vertex Pharmaceuticals Incorporated, priority 2005, dated 2014)
